Key:
Best1 channel = target: T1, Best1 channel (Mus musculus, UniProt O88870); format: cell-based; settings: NPPB and NFA at 100 μM; inward current in GABAc sensor cell
T1 construct: mBest1 full-length fragment from pGEM-T easy plasmid (6.65 kb, Promega) was subcloned into pcDNA 3.1; expressed in transfected cells; host or cells: HEK293T (ATCC)
T1 sequence (O88870 1-551 R255K): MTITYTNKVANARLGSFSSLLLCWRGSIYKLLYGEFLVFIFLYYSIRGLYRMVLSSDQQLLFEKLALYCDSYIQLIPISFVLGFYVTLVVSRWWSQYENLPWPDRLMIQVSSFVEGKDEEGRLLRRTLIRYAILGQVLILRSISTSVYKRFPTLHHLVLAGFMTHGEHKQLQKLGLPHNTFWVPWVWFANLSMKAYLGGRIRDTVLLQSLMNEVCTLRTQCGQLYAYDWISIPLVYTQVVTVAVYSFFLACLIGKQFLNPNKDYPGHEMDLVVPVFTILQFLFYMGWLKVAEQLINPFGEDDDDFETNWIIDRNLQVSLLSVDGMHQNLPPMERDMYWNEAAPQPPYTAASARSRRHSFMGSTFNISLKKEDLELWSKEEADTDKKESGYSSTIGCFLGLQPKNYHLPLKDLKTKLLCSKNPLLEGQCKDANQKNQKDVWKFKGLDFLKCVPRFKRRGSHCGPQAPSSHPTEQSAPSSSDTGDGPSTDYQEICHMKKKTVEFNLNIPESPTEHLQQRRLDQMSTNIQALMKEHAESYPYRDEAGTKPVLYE
From the text: For Best1 channel to mediate release of GABA, it has to permeate GABA upon channel opening. To test for GABA permeability of Best1 channel, a two-cell sniffer patch technique was developed to directly measure GABA release via Best1 channel in sensor HEK293T cells that express GABAc, and via other channels that are expressed in source HEK293T cells (FIG. 1b).
pIRES-Best1-dsRED plasmid (obtained by cloning Best1 using pIRES-dsRED (Invitrogen)) and GABAc with GFP (obtained by cloning GABAc using pcDNA3.1 (Invitrogen)) were transfected into HEK 293T cells (ATCC) using Effectene transfection reagent (Qiagen). […]
GABA release was induced by a break-though of membrane patch that goes into a whole-cell configuration in the source cell and such the released GABA was monitored and detected by a neighboring sensor cell. Full activation of GABA current was obtained by bath application of 100 μM GABA and the percentage of full activation was calculated (FIGS. 1c and 1d).
Permeated GABA is detected in sensor as an inward current (bottom traces). […] The GABA permeability of said mutant was determined by using cells obtained by transfecting said mutant into HEK293t cell (ATCC). […] The GABA permeability of said AN01 was determined by using cells obtained by transfecting said mutant into HEK293t cell (ACTT).

cerebellar granule cells [1] = assay: Clomeleon imaging of [Cl−]i in cerebellar granule cells (tonic GABA release); format: cell-based, mouse; settings: bath application of 10 μM
Method: B6 wildtype, GFAP-GFP and hGFAP-CreERT2 trangenic mice (SPF room, Center for Neural Science, KIST, Seoul, Korea) were anaesthetized by intraperitoneal injection of 2% avertin (20 μl/g, sigma) and placed in a stereotaxic frame (David Kopf instrument). pSicoR-b1shRNA-mCherry or scrambled virus (Macrogen) was stereo-injected into cerebellar cortex at a rate of 0.2 μl/min (total 2 μl) using syringe pump (Harvard apparatus) and 25 μl syringe (Hamilton company). The coordination of injection site was 1.7 mm from the lambda and the depth was 1.5-1.7 mm from the skull. […]
Clomeleon, based on fluorescence resonance energy transfer (FRET), is a genetically-encoded fluorescent indicator for Cl^− in which chloride-sensitive yellow fluroscent protein fused with chloride-insensitive cyan fluorescent protein via a flexible peptide linker (Kuner and Augustine, 2000). […]
For imaging, two ROIs (Regions of Interest) covering the granule cell layer and the molecular layer were drawn. […] Fluorescence excitation was produced by two consecutive 200 to 500 ms long light pulses at 0.5 Hz and fluorescence emission was alternately collected at each wavelength with a back-illuminated, cooled CCD camera with the on-chip multiplication gain control (Cascade 512B, Photometrics). […]

cerebellar granule cells [2] = assay: Whole-cell patch clamp of tonic GABA current in cerebellar granule cells; format: cell-based, mouse
Method: Brain slices were prepared as described in Rossi et al., 2003. For slice recording, either approximately P28 days old or more than 8 weeks old mice were used. Animals were deeply anesthetized with halothane. After decapitation, the brain was quickly excised from the skull and submerged in ice-cold cutting solution (in mM): 250 Sucrose, 26 NaHCO3, 10 D(+)-Glucose, 4 MgCl2, 3 myo-inositol, 2.5 KCl, 2 Sodium pyruvate, 1.25 NaH2PO4, 0.5 Ascorbic acid 0.1 CaCl2, 1 Kynurenic acid, pH 7.4. All solutions were gas-treated with 95% O2-5% CO2. After trimming both sides of vermis, several parasagittal slices with […] thicknesses containing cerebellar lobes were cut using a microtome (Leica VT 1000) and transferred to extracellular ACSF solution (in mM); 126 NaCl, 24 NaHCO3, 1 NaH2PO4, 2.5 KCl, 2.5 CaCl2, 2 MgCl2, 10 D(+)-Glucose, pH 7.4. Slices were incubated for one hour at least at room temperature.
For recording, slices were transferred to an electrophysiological recording chamber (RC-26G, Warner Instruments) which is continuously superfused with ASCF (artificial cerebrospinal fluid, sigma) solution (flow rate; 2 ml/min) and controlled by flower controller (Synaptosoft) and a vacuum pump (Charles Austen, model Capex 8C). Slice chamber was mounted on the stage of an upright microscope (Olympus, Japan) and viewed with an ×60 water immersion objective with differential interference contrast and infrared optics. Cellular morphologies were visually identified by Imaging Workbench 6.0 (INDEC Systems, Inc), camera controller (Hamamatsu, C4742-95), and light microscope controller (Olympus, TH4-200). Fluorescence images were viewed with mercury lamp (Olympus, U-RFL-T). Whole cell voltage-clamp recording was made from granular cell somata or Bergmann glial cells mostly located in 2-5 cerebellar lobules
Pipette resistance for granule cells was typically 10-12 MΩ and pipette was filled with an internal solution containing (in mM) 135 CsCl, 4 NaCl, 0.5 CaCl2, 10 HEPES, 5 EGTA, 2 Mg-ATP, 0.5 Na2-GTP, 10 QX-314, pH adjusted to 7.2 with CsOH (278-285 mOsmol) was used (Rossi, et al., 2003).
B6 wildtype, GFAP-GFP and hGFAP-CreERT2 trangenic mice (SPF room, Center for Neural Science, KIST, Seoul, Korea) were anaesthetized by intraperitoneal injection of 2% avertin (20 μl/g, sigma) and placed in a stereotaxic frame (David Kopf instrument). pSicoR-b1shRNA-mCherry or scrambled virus (Macrogen) was stereo-injected into cerebellar cortex at a rate of 0.2 μl/min (total 2 μl) using syringe pump (Harvard apparatus) and 25 μl syringe (Hamilton company). The coordination of injection site was 1.7 mm from the lambda and the depth was 1.5-1.7 mm from the skull.
The glia-specific CreERT activation was initiated by intraperitoneal injection of tamoxifen for 5 days prior to lentivirus injection (FIG. 4a,b). […] Tamoxifen or sunflower oil were injected intraperitoncally once a day for 5 days before lentivirus injection.

O=C(O)c1cc([N+](=O)[O-])ccc1NCCCc1ccccc1 [NPPB, 5-nitro-2(3-phenylpropylamino)-benzoic acid] was tested, and the “GABA release via Best1” value (Best1 channel) was “completely abolished”, the “[Cl−]i in granular cell bodies and parallel fibers” value (cerebellar granule cells [1]) was “decreased” and the “NPPB sensitive and Best1-mediated tonic GABA release as share of total GABAzine-sensitive current” value (cerebellar granule cells [2]) was “about 70%”. For the same molecule, the “Tonic GABA current” value (cerebellar granule cells [2]; bath application of 50 μM NPPB, 8 wks B6 mice) was “reduced” and the “NPPB-sensitive component of tonic GABA current” value (cerebellar granule cells [2]; naive mice, 50 μM NPPB) was 18.95±2.47 pA.
